Measured values as given in article PMC11852064 (Antibiotics, 2025).
Like-named read-outs stand apart in the source and are kept apart here.

How the values were obtained:
[1] = Population pharmacokinetic analysis of multidose DAL in adult patients (NONMEM); type: in vivo, human
Description: This prospective/retrospective study was approved by Liguria Territorial Ethics Committee (DALT DRUM Study, Registration number 82/2023—DB id 13014) and carried out from February 2023 to February 2024 at Ente Ospedaliero Ospedali Galliera, Genoa, Italy. Adult patients referred to the Department of Infectious Diseases with documented or suspected Gram-positive infection who failed primary antimicrobial therapy and were prescribed a multidose DAL regimen as a rescue treatment were deemed eligible for inclusion and after signing the informed consent they were enrolled in the study.
To avoid impacting patient lifestyle and routine clinical practice, a sparse sampling strategy was also adopted for outpatients needing blood tests at the convenience of the prescribing physician.
Pharmacokinetic data were analyzed according to a nonlinear mixed-effects modeling approach using NONMEM v7.5 with Pirana modeling workbench, whilst R, version 4.3.2, was used for data formatting and graphical and statistical summaries. No data transformation was applied to PK concentrations prior to the analysis.
From an initial model (one-compartment, first-order elimination with proportional error model), different possible combinations of structural and stochastic models, as well as the inter-individual variability (IIV) of PK parameters were assessed. The effect of several covariates, previously screened for their influence on the PK parameters of the drug under study, was then included in a stepwise manner with backward elimination in the final model. Continuous covariates (age, weight, height, serum albumin, creatinine, creatine clearance, PCR) were centered on their median value and their effect was evaluated by linear and non-linear relationships. Improvement between models was judged based on a decrease in objective function value (OFV) greater than 3.84 units (p < 0.05) using the FOCE-I estimation method, whilst an increase by more than 6.64 units (p < 0.01) upon removal was adopted during backward exclusion. Additionally, during the initial model-building process outliers were detected and excluded from the analysis based on visual examination of data points identified with conditional weighted residuals (CWRES) > 3. To evaluate the influence of outliers, a sensitivity analysis was conducted in which the updated popPK model was run with and without outliers. If a statistically significant change in OFV or in the estimation of key fixed-effects parameters was observed, outliers were considered influential in the modeling steps and commented out.
The predictive performance of the PK models was assessed by appropriateness of the relative standard error (RSE < 30%), graphically by means of classical key diagnostic plots, prediction-corrected visual predictive check (pcVPC), and by inspecting bootstrap results from 1000 resampled datasets. Finally, eta-shrinkage values were calculated to identify and quantify model overfitting.

S. aureus = conditions: ref 14; cited from earlier work
[2] = cited from earlier work
[3] = elimination via combination of renal and nonrenal clearance; cited from earlier work
[4] = test system: Staphylococcus aureus, Staphylococcus epidermidis, Enterococcus spp. vancomycin-sensitive (VSE), or vancomycin-resistant Van B biofilms; conditions: ref 37, 38; cited from earlier work
Description: In some instances, TDM ...

[5] = set-up: method as in earlier work; conditions: ref 40, 41; cited from earlier work
[6] = cited from earlier work; remark: listed apart in the source
[7] = bootstrap, 1000 resampled datasets
[8] = final two-compartment popPK model, allometric body weight, 30 adult patients, CLcr > 30 mL/min

**Q.** With Dalbavancin [listing 1 of 2 here] as the substance, how does the “CL, bootstrap median (CI 5-95%)” value [1, 7] read?
**A.** Its value is 0.0272 (0.0251–0.0294) L/h.

**Q.** What about the “Q, bootstrap median (CI 5-95%)” value [1, 7] of the same substance?
**A.** The value was 0.0223 (0.0175–0.02936) L/h.

**Q.** And the “V1, bootstrap median (CI 5-95%)” value [1, 7]?
**A.** Its value is 3.6 (3.4–3.8) L.

**Q.** And the “V2, bootstrap median (CI 5-95%)” value [1, 7]?
**A.** The value was 6.5 (5.6–7.5) L.

**Q.** And the “Q, inter-compartmental clearance, estimate” value [1, 8]?
**A.** Its value is 0.0225 L/h.

**Q.** What about the “V1, central volume of distribution, estimate” value [1, 8] of the same substance?
**A.** The value was 3.6 L.

**Q.** What about the “V2, peripheral volume of distribution, estimate” value [1, 8] of the same substance?
**A.** The value was 6.4 L.

**Q.** And the “CL, total body clearance, estimate” value ([1]; human, in vivo, iv, 1500 mg)?
**A.** Its value is 0.0273 L/h.

**Q.** What about the “Former EUCAST clinical breakpoint of susceptibility (MIC)” value (S. aureus) of the same substance?
**A.** The value was 0.125 µg/mL.

**Q.** And the “Free fraction of DAL in plasma” value ([2]; as reported on the label)?
**A.** Its value is 7%.

**Q.** And the “Binding to plasma proteins” value ([2]; ref 5)?
**A.** Its value is 93%.

**Q.** What about the “Binding to plasma proteins” value ([2]; ref 28) of the same substance?
**A.** The value was 93%.

**Q.** What about the “Renal share of elimination (renal clearance)” value [3] of the same substance?
**A.** Its value is “approximately 45%”.

**Q.** And the “Activity in vitro against established biofilms” value [4]?
**A.** Its value is “potent activity”.

**Q.** And the “EUCAST/USCAST clinical breakpoint MIC” value [5]?
**A.** Its value is 0.25 µg/mL.

**Q.** For Dalbavancin [listing 2 of 2 here], which duration of sufficient tissue exposure [6] is on record?
**A.** Its duration of sufficient tissue exposure is 8 weeks.
